Key:
Assay in all cases: KINOMEscan
Assay type in all cases: binding
PDGFRB = target: T1, PDGFRB (Homo sapiens, UniProt P09619); conditions: for remaining binding at 1 µM: read-out: % control activity remaining
T1 construct: purchased Eurofins DiscoverX KINOMEscan

MYO3A = target: T2, MYO3A (Homo sapiens, UniProt Q8NEV4); conditions: read-out: % control activity remaining
T2 construct: purchased Eurofins DiscoverX KINOMEscan

PIP5K2B = target: T3, PIP5K2B (Homo sapiens, UniProt P78356); conditions: read-out: % control activity remaining
T3 construct: purchased Eurofins DiscoverX KINOMEscan
T3 sequence (P78356 1-416): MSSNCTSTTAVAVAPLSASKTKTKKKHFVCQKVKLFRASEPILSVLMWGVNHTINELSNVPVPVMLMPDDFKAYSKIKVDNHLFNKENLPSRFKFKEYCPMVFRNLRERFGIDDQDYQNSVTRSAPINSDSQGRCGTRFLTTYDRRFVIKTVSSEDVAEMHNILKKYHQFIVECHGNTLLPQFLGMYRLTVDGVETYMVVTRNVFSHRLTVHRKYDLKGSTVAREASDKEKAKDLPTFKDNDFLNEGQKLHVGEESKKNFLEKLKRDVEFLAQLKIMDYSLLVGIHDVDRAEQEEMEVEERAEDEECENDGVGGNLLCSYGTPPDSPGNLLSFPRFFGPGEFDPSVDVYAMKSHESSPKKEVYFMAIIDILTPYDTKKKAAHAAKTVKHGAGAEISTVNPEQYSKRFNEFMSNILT

TRPM6 = target: T4, TRPM6 (Homo sapiens, UniProt Q9BX84); conditions: read-out: % control activity remaining
T4 construct: purchased Eurofins DiscoverX KINOMEscan

CAMK1 = target: T5, CAMK1 (Homo sapiens, UniProt Q14012); conditions: read-out: % control activity remaining
T5 construct: purchased Eurofins DiscoverX KINOMEscan
T5 sequence (Q14012 whole entry, looked up): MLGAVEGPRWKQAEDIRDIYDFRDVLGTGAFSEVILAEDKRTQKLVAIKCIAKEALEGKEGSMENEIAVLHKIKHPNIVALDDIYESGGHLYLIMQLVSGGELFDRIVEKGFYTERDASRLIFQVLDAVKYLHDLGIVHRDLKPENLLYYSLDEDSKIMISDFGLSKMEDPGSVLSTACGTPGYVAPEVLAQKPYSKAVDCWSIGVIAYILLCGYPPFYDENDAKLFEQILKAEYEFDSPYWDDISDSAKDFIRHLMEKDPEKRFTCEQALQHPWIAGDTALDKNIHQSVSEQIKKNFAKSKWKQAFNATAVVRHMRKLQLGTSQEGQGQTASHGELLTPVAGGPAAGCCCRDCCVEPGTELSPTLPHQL

BMPR1B = target: T6, BMPR1B (Homo sapiens, UniProt O00238); conditions: read-out: % control activity remaining
T6 construct: purchased Eurofins DiscoverX KINOMEscan
T6 sequence (O00238 14-502): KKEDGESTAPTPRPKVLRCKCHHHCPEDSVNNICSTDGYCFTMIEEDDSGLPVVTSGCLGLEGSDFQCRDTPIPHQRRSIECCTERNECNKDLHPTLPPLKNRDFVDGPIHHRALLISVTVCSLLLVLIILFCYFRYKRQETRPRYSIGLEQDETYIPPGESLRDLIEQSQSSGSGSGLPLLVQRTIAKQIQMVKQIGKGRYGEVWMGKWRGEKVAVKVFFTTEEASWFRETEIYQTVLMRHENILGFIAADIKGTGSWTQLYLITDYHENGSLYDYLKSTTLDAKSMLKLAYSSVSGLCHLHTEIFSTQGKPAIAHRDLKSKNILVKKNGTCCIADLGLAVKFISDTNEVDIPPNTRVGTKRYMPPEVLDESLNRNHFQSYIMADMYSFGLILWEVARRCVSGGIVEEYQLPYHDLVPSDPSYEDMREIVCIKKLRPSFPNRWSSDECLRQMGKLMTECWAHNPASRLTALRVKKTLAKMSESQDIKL

TGFBR1 = target: T7, TGFBR1 (Homo sapiens, UniProt P36897); conditions: read-out: % control activity remaining
T7 construct: purchased Eurofins DiscoverX KINOMEscan
T7 sequence (P36897 34-503): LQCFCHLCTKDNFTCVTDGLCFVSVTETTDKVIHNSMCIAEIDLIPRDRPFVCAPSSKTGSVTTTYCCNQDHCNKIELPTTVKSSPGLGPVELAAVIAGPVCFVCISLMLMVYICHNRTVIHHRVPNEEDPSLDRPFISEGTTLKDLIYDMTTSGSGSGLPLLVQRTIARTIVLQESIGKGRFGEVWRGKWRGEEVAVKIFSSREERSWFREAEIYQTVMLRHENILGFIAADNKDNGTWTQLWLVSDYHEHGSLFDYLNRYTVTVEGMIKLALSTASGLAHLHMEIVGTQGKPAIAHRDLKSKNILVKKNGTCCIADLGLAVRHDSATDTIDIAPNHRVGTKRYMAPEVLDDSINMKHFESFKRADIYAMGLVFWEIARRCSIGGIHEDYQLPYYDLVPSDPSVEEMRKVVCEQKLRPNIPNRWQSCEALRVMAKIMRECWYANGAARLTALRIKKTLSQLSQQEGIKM

VEGFR2 = target: T8, VEGFR2 (Homo sapiens, UniProt P35968); conditions: read-out: % control activity remaining
T8 construct: purchased Eurofins DiscoverX KINOMEscan

ALK(C1156Y) = target: T9, ALK(C1156Y) (Homo sapiens, UniProt Q9UM73, C1156Y); conditions: read-out: % control activity remaining
T9 construct: purchased Eurofins DiscoverX KINOMEscan

PRKD3 = target: T10, PRKD3 (Homo sapiens, UniProt O94806); conditions: read-out: % control activity remaining
T10 construct: purchased Eurofins DiscoverX KINOMEscan
T10 sequence (O94806 1-890): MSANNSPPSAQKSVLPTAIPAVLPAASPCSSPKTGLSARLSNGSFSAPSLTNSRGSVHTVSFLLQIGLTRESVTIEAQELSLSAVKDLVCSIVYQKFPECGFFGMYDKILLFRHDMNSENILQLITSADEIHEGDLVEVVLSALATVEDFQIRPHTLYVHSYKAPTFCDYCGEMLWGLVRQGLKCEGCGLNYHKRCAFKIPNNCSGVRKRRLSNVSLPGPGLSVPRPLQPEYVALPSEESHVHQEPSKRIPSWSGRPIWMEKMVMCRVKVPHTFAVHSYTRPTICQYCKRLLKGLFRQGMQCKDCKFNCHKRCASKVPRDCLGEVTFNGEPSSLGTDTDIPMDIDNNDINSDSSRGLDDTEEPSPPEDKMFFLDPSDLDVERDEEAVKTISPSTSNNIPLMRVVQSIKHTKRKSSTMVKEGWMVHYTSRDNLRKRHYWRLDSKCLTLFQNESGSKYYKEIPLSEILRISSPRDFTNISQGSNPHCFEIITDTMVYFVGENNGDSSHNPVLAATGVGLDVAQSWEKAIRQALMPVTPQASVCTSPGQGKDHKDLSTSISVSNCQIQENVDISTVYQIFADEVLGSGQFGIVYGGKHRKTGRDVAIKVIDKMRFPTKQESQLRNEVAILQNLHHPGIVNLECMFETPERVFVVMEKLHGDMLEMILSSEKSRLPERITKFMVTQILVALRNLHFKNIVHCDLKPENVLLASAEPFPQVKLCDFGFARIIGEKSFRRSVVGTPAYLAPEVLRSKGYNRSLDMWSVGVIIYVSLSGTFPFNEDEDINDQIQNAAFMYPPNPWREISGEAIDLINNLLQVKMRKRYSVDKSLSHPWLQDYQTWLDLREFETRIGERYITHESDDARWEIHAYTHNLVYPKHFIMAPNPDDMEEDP

FAK = target: T11, FAK (Homo sapiens, UniProt Q05397); conditions: read-out: % control activity remaining
T11 construct: purchased Eurofins DiscoverX KINOMEscan
T11 sequence (Q05397 whole entry): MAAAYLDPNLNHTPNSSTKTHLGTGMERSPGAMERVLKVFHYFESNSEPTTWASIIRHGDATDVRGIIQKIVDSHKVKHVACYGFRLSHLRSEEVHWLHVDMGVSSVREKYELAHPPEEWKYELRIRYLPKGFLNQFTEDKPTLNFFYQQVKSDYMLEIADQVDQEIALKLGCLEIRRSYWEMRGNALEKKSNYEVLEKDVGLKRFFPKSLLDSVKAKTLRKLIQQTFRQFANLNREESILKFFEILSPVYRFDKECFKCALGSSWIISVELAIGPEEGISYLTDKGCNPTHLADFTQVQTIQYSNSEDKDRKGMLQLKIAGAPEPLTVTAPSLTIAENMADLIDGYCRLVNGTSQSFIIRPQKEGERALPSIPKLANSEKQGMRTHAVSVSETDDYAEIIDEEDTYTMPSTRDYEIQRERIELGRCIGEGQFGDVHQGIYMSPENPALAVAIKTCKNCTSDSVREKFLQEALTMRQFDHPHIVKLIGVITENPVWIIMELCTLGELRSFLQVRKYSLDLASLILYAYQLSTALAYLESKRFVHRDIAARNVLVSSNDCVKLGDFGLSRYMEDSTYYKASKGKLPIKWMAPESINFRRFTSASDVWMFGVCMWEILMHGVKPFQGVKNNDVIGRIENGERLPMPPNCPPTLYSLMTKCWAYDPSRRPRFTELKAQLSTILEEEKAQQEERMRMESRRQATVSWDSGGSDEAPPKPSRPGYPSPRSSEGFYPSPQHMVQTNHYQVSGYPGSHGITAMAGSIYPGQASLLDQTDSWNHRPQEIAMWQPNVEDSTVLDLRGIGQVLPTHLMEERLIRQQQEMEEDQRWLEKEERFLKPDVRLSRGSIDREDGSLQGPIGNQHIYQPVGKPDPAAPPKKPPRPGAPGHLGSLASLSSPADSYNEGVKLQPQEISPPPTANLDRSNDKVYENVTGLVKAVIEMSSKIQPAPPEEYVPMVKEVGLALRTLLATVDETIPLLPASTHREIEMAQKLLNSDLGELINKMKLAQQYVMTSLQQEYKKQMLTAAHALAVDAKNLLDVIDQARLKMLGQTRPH

PKAC-beta = target: T12, PKAC-beta (Homo sapiens, UniProt P22694); conditions: read-out: % control activity remaining
T12 construct: purchased Eurofins DiscoverX KINOMEscan

T2 sequence (Q8NEV4 whole entry): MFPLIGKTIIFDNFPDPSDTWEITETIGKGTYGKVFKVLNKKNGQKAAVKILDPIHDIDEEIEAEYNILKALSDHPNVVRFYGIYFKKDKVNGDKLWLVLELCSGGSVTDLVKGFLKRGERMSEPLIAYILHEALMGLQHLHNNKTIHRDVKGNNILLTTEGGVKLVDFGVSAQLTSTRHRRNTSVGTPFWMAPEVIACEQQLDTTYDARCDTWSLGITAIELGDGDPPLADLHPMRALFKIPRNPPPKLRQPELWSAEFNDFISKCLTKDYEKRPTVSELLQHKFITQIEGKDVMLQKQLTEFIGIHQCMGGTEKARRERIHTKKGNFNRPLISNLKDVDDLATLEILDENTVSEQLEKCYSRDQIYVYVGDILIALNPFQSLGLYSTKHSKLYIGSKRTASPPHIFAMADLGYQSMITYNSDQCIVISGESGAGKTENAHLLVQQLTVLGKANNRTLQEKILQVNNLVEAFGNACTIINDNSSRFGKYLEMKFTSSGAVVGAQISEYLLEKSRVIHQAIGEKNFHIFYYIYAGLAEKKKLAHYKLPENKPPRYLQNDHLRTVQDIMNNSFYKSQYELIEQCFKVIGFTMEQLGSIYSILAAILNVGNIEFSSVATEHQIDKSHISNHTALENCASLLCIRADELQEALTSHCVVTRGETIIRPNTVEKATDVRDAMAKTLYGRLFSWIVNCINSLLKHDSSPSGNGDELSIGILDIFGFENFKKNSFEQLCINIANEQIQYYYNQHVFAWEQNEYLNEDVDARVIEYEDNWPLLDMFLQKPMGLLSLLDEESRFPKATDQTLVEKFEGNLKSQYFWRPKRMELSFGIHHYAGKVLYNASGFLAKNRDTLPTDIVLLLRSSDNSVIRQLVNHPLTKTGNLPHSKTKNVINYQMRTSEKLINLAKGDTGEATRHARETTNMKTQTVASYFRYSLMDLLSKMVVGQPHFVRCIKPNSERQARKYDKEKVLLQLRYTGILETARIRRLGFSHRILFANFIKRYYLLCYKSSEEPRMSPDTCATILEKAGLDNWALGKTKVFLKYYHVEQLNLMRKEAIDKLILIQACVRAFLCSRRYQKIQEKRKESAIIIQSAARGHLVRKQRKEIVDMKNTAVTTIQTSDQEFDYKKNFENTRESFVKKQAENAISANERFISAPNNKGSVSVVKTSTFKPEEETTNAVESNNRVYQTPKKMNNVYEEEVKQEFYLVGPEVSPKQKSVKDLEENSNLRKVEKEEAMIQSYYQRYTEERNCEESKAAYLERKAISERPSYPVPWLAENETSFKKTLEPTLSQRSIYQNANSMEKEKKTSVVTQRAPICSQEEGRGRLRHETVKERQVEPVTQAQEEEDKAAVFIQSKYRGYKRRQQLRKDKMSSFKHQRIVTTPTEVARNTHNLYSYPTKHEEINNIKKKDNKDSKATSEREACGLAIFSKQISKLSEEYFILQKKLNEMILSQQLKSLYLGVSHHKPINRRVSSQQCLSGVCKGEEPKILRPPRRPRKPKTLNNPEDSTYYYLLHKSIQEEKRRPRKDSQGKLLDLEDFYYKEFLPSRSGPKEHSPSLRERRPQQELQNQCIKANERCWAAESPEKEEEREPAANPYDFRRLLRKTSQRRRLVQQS
T1 sequence (P09619 33-1106): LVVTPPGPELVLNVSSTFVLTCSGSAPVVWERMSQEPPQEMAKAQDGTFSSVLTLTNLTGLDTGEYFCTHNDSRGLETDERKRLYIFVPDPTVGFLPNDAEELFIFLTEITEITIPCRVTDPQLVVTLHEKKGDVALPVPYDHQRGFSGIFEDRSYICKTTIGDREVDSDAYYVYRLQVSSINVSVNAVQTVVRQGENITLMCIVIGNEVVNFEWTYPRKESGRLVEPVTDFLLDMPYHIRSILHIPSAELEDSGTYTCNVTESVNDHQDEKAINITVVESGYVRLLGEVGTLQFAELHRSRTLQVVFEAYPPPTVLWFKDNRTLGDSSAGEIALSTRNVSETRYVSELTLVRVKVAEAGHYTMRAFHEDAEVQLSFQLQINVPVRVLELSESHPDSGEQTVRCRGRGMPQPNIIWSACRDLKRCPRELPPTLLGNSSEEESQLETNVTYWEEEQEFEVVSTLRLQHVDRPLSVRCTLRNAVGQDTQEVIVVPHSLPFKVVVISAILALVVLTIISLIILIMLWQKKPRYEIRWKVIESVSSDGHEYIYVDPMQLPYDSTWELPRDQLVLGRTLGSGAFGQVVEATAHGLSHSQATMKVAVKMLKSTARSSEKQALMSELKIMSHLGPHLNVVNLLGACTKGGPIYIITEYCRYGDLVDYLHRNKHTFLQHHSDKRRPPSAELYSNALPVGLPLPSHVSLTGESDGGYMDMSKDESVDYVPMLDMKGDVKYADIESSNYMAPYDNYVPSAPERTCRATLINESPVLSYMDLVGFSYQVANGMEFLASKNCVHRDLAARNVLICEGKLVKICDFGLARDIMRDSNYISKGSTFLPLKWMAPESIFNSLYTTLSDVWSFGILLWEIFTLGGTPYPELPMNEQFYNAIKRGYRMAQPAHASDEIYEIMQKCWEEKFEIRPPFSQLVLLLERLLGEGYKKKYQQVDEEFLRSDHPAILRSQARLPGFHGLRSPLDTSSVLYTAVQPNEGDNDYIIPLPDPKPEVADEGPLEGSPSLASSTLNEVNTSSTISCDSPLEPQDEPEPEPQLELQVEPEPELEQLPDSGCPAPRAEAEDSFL

Clc1cc(NCC2CC2)c2ncc(-c3ccc4[nH]ncc4c3)n2n1 [compound 2, 6-Chloro-N-(cyclopropylmethyl)-3-(1H-indazol-5-yl)imidazo[1,2-b]pyridazin-8-amine] gave a remaining binding at 1 µM (PDGFRB) of 1.3%, a remaining binding at 1 µM (MYO3A) of 96% and a remaining binding at 1 µM (PIP5K2B) of 78%. For the same compound, the remaining binding at 1 µM (TRPM6) was 100%, the remaining binding at 1 µM (CAMK1) was 100% and the remaining binding at 1 µM (BMPR1B) was 100%. For the same compound, the remaining binding at 1 µM (TGFBR1) was 100%, the remaining binding at 1 µM (VEGFR2) was 79% and the remaining binding at 1 µM (ALK(C1156Y)) was 88%. The remaining binding at 1 µM (PRKD3) was 98%, the remaining binding at 1 µM (FAK) was 91% and the remaining binding at 1 µM (PKAC-beta) was 86%.
With O=C(CN1CCOCC1)N[C@H]1CC[C@H](Nc2cc(Cl)nn3c(-c4ccc5[nH]ncc5c4)cnc23)CC1 [compound 26] the remaining binding at 1 µM (PDGFRB) was 0.05%, the inhibition at 1 µM (PDGFRB; read-out: Probe binding inhibited) was > 90% and the remaining binding at 1 µM (MYO3A) was 96%. For the same compound, the remaining binding at 1 µM (PIP5K2B) was 87%, the remaining binding at 1 µM (TRPM6) was 92% and the remaining binding at 1 µM (CAMK1) was 77%. For the same compound, the remaining binding at 1 µM (BMPR1B) was 100%, the remaining binding at 1 µM (TGFBR1) was 100% and the remaining binding at 1 µM (VEGFR2) was 35%. The remaining binding at 1 µM (ALK(C1156Y)) was 64%, the remaining binding at 1 µM (PRKD3) was 94% and the remaining binding at 1 µM (FAK) was 100%. For the same compound, the remaining binding at 1 µM (PKAC-beta) was 99%.
With CN1CCC(CNc2cc(Cl)nn3c(-c4cc5nc(Nc6ccccc6)[nH]c5cc4F)cnc23)CC1 [compound 31, 6-Chloro-3-(6-fluoro-2-(phenylamino)-1H-benzo[d]imidazol-5-yl)-N-((1-methylpiperidin-4-yl)methyl)imidazo[1,2-b]pyridazin-8-amine] the remaining binding at 1 µM (PDGFRB) was 56%, the remaining binding at 1 µM (MYO3A) was 97% and the remaining binding at 1 µM (PIP5K2B) was 81%. It also gave a remaining binding at 1 µM (TRPM6) of 85%, a remaining binding at 1 µM (CAMK1) of 84% and a remaining binding at 1 µM (BMPR1B) of 67%. For the same compound, the remaining binding at 1 µM (TGFBR1) was 92%, the remaining binding at 1 µM (VEGFR2) was 71% and the remaining binding at 1 µM (ALK(C1156Y)) was 91%. For the same compound, the remaining binding at 1 µM (PRKD3) was 100%, the remaining binding at 1 µM (FAK) was 97% and the remaining binding at 1 µM (PKAC-beta) was 90%.
